# Test results: the supplement of paper PMC10307832
# Tests used:
# Assay in all cases: relative viability (nuclei count vs DMSO), 5 days (fraction); higher = more cells survive
# [1] = compound: CCn1c(-c2nonc2N)nc2c(C#CC(C)(C)O)ncc(OC[C@H]3CCCNC3)c21 + CC(=O)Nc1cccc(-n2c(=O)n(C3CC3)c(=O)c3c(Nc4ccc(I)cc4F)n(C)c(=O)c(C)c32)c1 [Trametinib] (partner 0.02 µM)
# Procedure, shortened: (§1)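 Lung cancer cell lines were seeded in 1536-well plates and dosed by pin tool the next day, with either a single drug or a fixed anchor-drug dose combined with five library-drug doses (not always all listed) spaced in √10 steps. Five days later, one step fixed the cells and stained their nuclei (final 0.05% Triton X-100, 1% formaldehyde, 1 ug/ml Hoechst), and nuclei were counted on 4× images. Relative viability is the nuclei count in treated wells divided by the count in vehicle wells, and each value is the median of duplicate plates.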
# [2] = compound: CCn1c(-c2nonc2N)nc2c(C#CC(C)(C)O)ncc(OC[C@H]3CCCNC3)c21 + Cc1cc(Nc2cc(N3CCN(C)CC3)nc(Sc3ccc(NC(=O)C4CC4)cc3)n2)n[nH]1 [Tozasertib] (partner 0.1 µM)
# Procedure, shortened: as §1
# BAM7 + Crizotinib = compound: CCOC1=CC=CC=C1N=NC2=C(NN(C2=O)C3=NC(=CS3)C4=CC=CC=C4)C [BAM7] + C[C@@H](Oc1cc(-c2cnn(C3CCNCC3)c2)cnc1N)c1c(Cl)ccc(F)c1Cl [Crizotinib] (partner 1 µM)
# Procedure, shortened: as §1
# [3] = compound: CCn1c(-c2nonc2N)nc2c(C#CC(C)(C)O)ncc(OC[C@H]3CCCNC3)c21 + Nc1ncn([C@H]2C[C@H](O)[C@@H](CO)O2)c(=O)n1 [Decitabine] (partner 2 µM)
# Procedure, shortened: as §1
cell line,measurement,setting,value
UMC-11,relative viability,[1]; first compound 0.01 µM,0.765
same,relative viability,[1]; first compound 0.03162 µM,0.701
same,relative viability,[1]; first compound 0.1 µM,0.754
same,relative viability,[1]; first compound 0.3162 µM,0.754
same,relative viability,[1]; first compound 1 µM,0.618
same,relative viability,[2]; first compound 0.01 µM,0.198
same,relative viability,[2]; first compound 0.03162 µM,0.209
same,relative viability,[2]; first compound 0.1 µM,0.194
same,relative viability,[2]; first compound 0.3162 µM,0.201
same,relative viability,[2]; first compound 1 µM,0.197
same,relative viability,BAM7 + Crizotinib; first compound 0.5 µM,0.661
same,relative viability,BAM7 + Crizotinib; first compound 5 µM,0.786
same,relative viability,BAM7 + Crizotinib; first compound 15.81 µM,0.624
same,relative viability,BAM7 + Crizotinib; first compound 50 µM,0.636
same,relative viability,[3]; first compound 0.01 µM,0.533
same,relative viability,[3]; first compound 0.03162 µM,0.46
same,relative viability,[3]; first compound 0.1 µM,0.6
same,relative viability,[3]; first compound 0.3162 µM,0.686
same,relative viability,[3]; first compound 1 µM,0.607
